Test results taken from PubChem BioAssay (NCI).
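Each compound was tested at five concentrations against cells in 96-well plates for 48 hours. The concentration for 50% growth inhibition is given as GI50. Definition used: TGI = concentration required for complete inhibition of growth.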

What was measured:
Test in all cases: NCI-60 cell line screen, 48 h
M14 melanoma = tested on: M14 melanoma
OVCAR-3 ovarian = tested on: OVCAR-3 ovarian
TK-10 renal = tested on: TK-10 renal
COLO 205 colon = tested on: COLO 205 colon
HS 578T breast = tested on: HS 578T breast
SK-MEL-5 melanoma = tested on: SK-MEL-5 melanoma
HCT-15 colon = tested on: HCT-15 colon
SF-295 CNS = tested on: SF-295 CNS
PC-3 prostate = tested on: PC-3 prostate
HCC-2998 colon = tested on: HCC-2998 colon
MOLT-4 leukemia = tested on: MOLT-4 leukemia
BT-549 breast = tested on: BT-549 breast
SF-268 CNS = tested on: SF-268 CNS
UACC-257 melanoma = tested on: UACC-257 melanoma
NCI-H226 lung = tested on: NCI-H226 lung
SW-620 colon = tested on: SW-620 colon
NCI-H460 lung = tested on: NCI-H460 lung
HCT-116 colon = tested on: HCT-116 colon
NCI/ADR-RES ovarian = tested on: NCI/ADR-RES ovarian
RXF 393 renal = tested on: RXF 393 renal
U251 CNS = tested on: U251 CNS
UACC-62 melanoma = tested on: UACC-62 melanoma
HT29 colon = tested on: HT29 colon
RPMI-8226 leukemia = tested on: RPMI-8226 leukemia
MALME-3M melanoma = tested on: MALME-3M melanoma
CAKI-1 renal = tested on: CAKI-1 renal
HL-60(TB) leukemia = tested on: HL-60(TB) leukemia
SK-MEL-28 melanoma = tested on: SK-MEL-28 melanoma
HOP-62 NSCLC = tested on: HOP-62 NSCLC

With `COC(=O)[C@H](Cc1cn(C)cn1)NC(=O)[C@H](C)NC(=O)Nc1cc(C(F)(F)F)cc(C(F)(F)F)c1` the TGI (M14 melanoma) was > 10 µM, the GI50 (OVCAR-3 ovarian) was > 10 µM and the TGI (OVCAR-3 ovarian) was > 10 µM. For the same molecule, the GI50 (TK-10 renal) was > 10 µM, the TGI (TK-10 renal) was > 10 µM and the GI50 (COLO 205 colon) was > 10 µM. For the same molecule, the TGI (COLO 205 colon) was > 10 µM, the GI50 (HS 578T breast) was > 10 µM and the TGI (HS 578T breast) was > 10 µM. The GI50 (SK-MEL-5 melanoma) was > 10 µM, the TGI (SK-MEL-5 melanoma) was > 10 µM and the GI50 (HCT-15 colon) was > 10 µM. For the same molecule, the TGI (HCT-15 colon) was > 10 µM, the GI50 (SF-295 CNS) was > 10 µM and the TGI (SF-295 CNS) was > 10 µM. For the same molecule, the GI50 (PC-3 prostate) was > 10 µM, the TGI (PC-3 prostate) was > 10 µM and the GI50 (HCC-2998 colon) was > 10 µM. The TGI (HCC-2998 colon) was > 10 µM, the GI50 (MOLT-4 leukemia) was > 10 µM and the TGI (MOLT-4 leukemia) was > 10 µM. For the same molecule, the GI50 (BT-549 breast) was > 10 µM, the TGI (BT-549 breast) was > 10 µM and the GI50 (SF-268 CNS) was > 10 µM. The TGI (SF-268 CNS) was > 10 µM, the GI50 (UACC-257 melanoma) was > 10 µM and the TGI (UACC-257 melanoma) was > 10 µM. The GI50 (NCI-H226 lung) was > 10 µM, the TGI (NCI-H226 lung) was > 10 µM and the GI50 (SW-620 colon) was > 10 µM. For the same molecule, the TGI (SW-620 colon) was > 10 µM, the GI50 (NCI-H460 lung) was > 10 µM and the TGI (NCI-H460 lung) was > 10 µM. For the same molecule, the GI50 (HCT-116 colon) was > 10 µM, the TGI (HCT-116 colon) was > 10 µM and the GI50 (NCI/ADR-RES ovarian) was > 10 µM. The TGI (NCI/ADR-RES ovarian) was > 10 µM, the GI50 (RXF 393 renal) was > 10 µM and the TGI (RXF 393 renal) was > 10 µM. The GI50 (U251 CNS) was > 10 µM, the TGI (U251 CNS) was > 10 µM and the GI50 (UACC-62 melanoma) was > 10 µM. For the same molecule, the TGI (UACC-62 melanoma) was > 10 µM, the GI50 (HT29 colon) was > 10 µM and the TGI (HT29 colon) was > 10 µM. For the same molecule, the GI50 (RPMI-8226 leukemia) was > 10 µM, the TGI (RPMI-8226 leukemia) was > 10 µM and the GI50 (MALME-3M melanoma) was > 10 µM. For the same molecule, the TGI (MALME-3M melanoma) was > 10 µM, the GI50 (CAKI-1 renal) was > 10 µM and the TGI (CAKI-1 renal) was > 10 µM. For the same molecule, the GI50 (HL-60(TB) leukemia) was > 10 µM, the TGI (HL-60(TB) leukemia) was > 10 µM and the GI50 (SK-MEL-28 melanoma) was > 10 µM. The TGI (SK-MEL-28 melanoma) was > 10 µM, the GI50 (HOP-62 NSCLC) was > 10 µM and the TGI (HOP-62 NSCLC) was > 10 µM.
